This passage reports IC50 results from US9556179B2 (BRISTOL-MYERS SQUIBB COMPANY, priority 2012, dated 2017).

Assay [1] has as its target CK1ε (Homo sapiens (Human), UniProt P49674). In words: CK1ε kinase assay (Caliper LABCHIP electrophoretic separation of fluoresceinated peptide substrate and product). The format is biochemical. The note with it: 200 pM enzyme, 50 μM ATP, 22 hours at room temperature. In outline:
(§1)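 Compounds, taken from 10 mM DMSO stocks, are titrated at eleven concentrations. Kinase reactions proceed for 22 hours at room temperature and are quenched with EDTA. Substrate and product are resolved electrophoretically, and IC50 values are fitted by non-linear regression.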

The target in assay [2] is CK1δ (Homo sapiens (Human), UniProt P48730). In words: CK1δ kinase assay (Caliper LABCHIP electrophoretic separation of fluoresceinated peptide substrate and product). The format is biochemical. The note with it: 200 pM enzyme, 50 μM ATP, 22 hours at room temperature. In outline: as §1
Chain of CK1δ (P48730 whole entry): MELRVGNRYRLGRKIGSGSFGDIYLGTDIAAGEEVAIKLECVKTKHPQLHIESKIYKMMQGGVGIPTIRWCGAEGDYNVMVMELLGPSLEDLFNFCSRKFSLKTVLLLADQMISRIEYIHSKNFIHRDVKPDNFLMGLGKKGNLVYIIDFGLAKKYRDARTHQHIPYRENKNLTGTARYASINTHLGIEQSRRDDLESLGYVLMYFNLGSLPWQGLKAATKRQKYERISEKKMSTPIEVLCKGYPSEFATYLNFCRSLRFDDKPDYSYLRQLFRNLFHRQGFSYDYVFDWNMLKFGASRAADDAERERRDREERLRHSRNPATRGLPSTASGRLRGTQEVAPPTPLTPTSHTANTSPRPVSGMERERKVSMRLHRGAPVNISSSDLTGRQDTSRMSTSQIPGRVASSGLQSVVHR

Chain of CK1ε (P49674 whole entry): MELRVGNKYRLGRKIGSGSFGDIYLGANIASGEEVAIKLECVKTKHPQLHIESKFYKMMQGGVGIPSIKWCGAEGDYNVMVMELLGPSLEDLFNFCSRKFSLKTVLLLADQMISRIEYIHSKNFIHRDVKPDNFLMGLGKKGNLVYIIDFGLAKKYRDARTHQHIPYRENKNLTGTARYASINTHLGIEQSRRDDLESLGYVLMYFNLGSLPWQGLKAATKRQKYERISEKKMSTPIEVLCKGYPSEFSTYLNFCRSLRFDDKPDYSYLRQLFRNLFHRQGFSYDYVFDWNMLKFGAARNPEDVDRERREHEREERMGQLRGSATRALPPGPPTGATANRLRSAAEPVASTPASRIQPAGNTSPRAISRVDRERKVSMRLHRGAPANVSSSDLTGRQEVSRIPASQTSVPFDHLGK

Regarding `Cc1nc(-c2ccc(F)cc2)c(-c2ccc3nc(NC(=O)c4sc(-c5cccnc5)nc4C(F)(F)F)cn3n2)n1C` [Compound 404, N-(6-(4-(4-Fluorophenyl)-1,2-dimethyl-1H-imidazol-5-yl)imidazo[1,2-b]pyridazin-2-yl)-2-(pyridin-3-yl)-4-(trifluoromethyl)thiazole-5-carboxamide], the values for the IC50 in assay [1] and in assay [2] were 4.21 nM and 1.04 nM, respectively.

As for `Cc1nc(-c2ccncc2)sc1C(=O)Nc1cn2nc(-c3c(-c4ccc(F)cc4)nc4ccccn34)ccc2n1` [Compound 219, N-(6-(2-(4-fluorophenyl)imidazo[1,2-a]pyridin-3-yl)imidazo[1,2-b]pyridazin-2-yl)-4-methyl-2-(pyridin-4-yl) thiazole-5-carboxamide], the IC50 (as a rule, the concentration needed to halve the response being measured) in assay [1] was 1.22 nM; in assay [2] it was 1.15 nM.

Consider `Cc1nc(-c2ccc(F)cc2)c(-c2ccc3nc(NC(=O)c4ccncn4)cn3n2)n1C` [Compound 384, N-(6-(4-(4-fluorophenyl)-1,2-dimethyl-1H-imidazol-5-yl)imidazo[1,2-b]pyridazin-2-yl)pyrimidine-4-carboxamide], for which the IC50 in assay [1] stood at 29.1 nM; in assay [2] it was 8.51 nM.

`Cc1nc(-c2ccc(F)cc2)c(-c2ccc3nc(NC(=O)c4ccc[nH]4)cn3n2)n1C` [Compound 358, N-(6-(4-(4-fluorophenyl)-1,2-dimethyl-1H-imidazol-5-yl)imidazo[1,2-b]pyridazin-2-yl)-1H-pyrrole-2-carbox-amide]: the concentration for half-maximal inhibition (IC50) in assay [1] stood at 3.92 nM; in assay [2], 0.534 nM.

`O=C(Nc1cn2nc(-c3c(-c4ccc(F)cc4)nc4ccccn34)ccc2n1)c1cncc(-c2cccs2)c1` [Compound 212, N-(6-(2-(4-fluorophenyl)imidazo[1,2-a]pyridin-3-yl)imidazo[1,2-b]pyridazin-2-yl)-5-(thiophen-2-yl) nicotinamide]: the results for the IC50 in assay [1] and in assay [2] were 5.98 nM and 0.64 nM, respectively.

Take `CC1(C(=O)N2CCn3c(nc(-c4ccc(F)cc4)c3-c3ccc4nc(NC(=O)c5ccnc(F)c5)cn4n3)C2)COC1` [Compound 468, 2-Fluoro-N-(6-(2-(4-fluorophenyl)-7-(3-methyloxetane-3-carbonyl)-5,6,7,8-tetrahydroimidazo[1,2-a]pyrazin-3-yl)imidazo[1,2-b]pyridazin-2-yl)isonicotinamide]: the values for the IC50 in assay [1] and in assay [2] were 3.9 nM and 0.5 nM, respectively.

With `Nc1ccc2nc(-c3ccc(F)cc3)c(-c3ccc4nc(NC(=O)c5ccncc5)cn4n3)n2n1` [Compound 224, N-(6-amino-2-(4-fluorophenyl)-[3,6′-biimidazo[1,2-b]pyridazin]-2′-yl)isonicotinamide], the figures for the IC50 in assay [1] and in assay [2] were 2.81 nM and 0.694 nM, respectively.

Take `CC(=O)N1CCCC1C(=O)Nc1cn2nc(-c3c(-c4ccc(F)cc4)nc(C)n3C)ccc2n1` [Compound 353, 1-acetyl-N-(6-(4-(4-fluoro-phenyl)-1,2-dimethyl-1H-imidazol-5-yl)imidazo[1,2-b]pyridazin-2-yl)-L-pro-linamide]: the IC50 in assay [1] was 74.2 nM; in assay [2], 4.94 nM.

In the case of `COCCn1cnc(-c2ccc(F)cc2)c1-c1ccc2nc(NC(=O)C(C)(C)C)cn2n1` [Compound 280, N-(6-(4-(4-fluorophenyl)-1-(2-methoxy-ethyl)-1H-imidazol-5-yl)imidazo[1,2-b]pyridazin-2-yl)pivalamide], the half-maximal inhibitory concentration (IC50) in assay [1] is 2.49 nM; in assay [2], 0.52 nM.

Consider `CCCn1cnc(-c2ccc(F)cc2)c1-c1ccc2nc(NC(=O)C(C)(C)C)cn2n1` [Compound 273, N-(6-(4-(4-Fluorophenyl)-1-propyl-1H-imidazol-5-yl)imidazo[1,2-b]pyridazin-2-yl)pivalamide], for which the values for the IC50 in assay [1] and in assay [2] were 1.01 nM and 0.257 nM, respectively.

Consider `Cc1nc(-c2ccc(F)cc2)c(-c2ccc3nc(NC(=O)c4cncc(-c5ccc(F)nc5)c4)cn3n2)n1C` [Compound 406, 6′-Fluoro-N-(6-(4-(4-fluorophenyl)-1,2-dimethyl-1H-imidazol-5-yl)imidazo[1,2-b]pyridazin-2-yl)-[3,3′-bipyridine]-5-carboxamide], for which the IC50 was 2.94 nM in assay [1] and 0.349 nM in assay [2].

Turning to `O=C(Nc1cn2nc(-c3c(-c4ccc(F)cc4)ncn3C3CCN(C(=O)CC(F)(F)F)CC3)ccc2n1)c1cncs1` [Compound 117, N-(6-(4-(4-fluorophenyl)-1-(1-(3,3,3-trifluoropropanoyl)piperidin-4-yl)-1H-imidazol-5-yl)imidazo[1,2-b]pyridazin-2-yl)thiazole-5-carboxamide], the IC50 in assay [1] worked out at 0.424 nM; in assay [2], 0.175 nM.

In the case of `CC(C)(C(=O)N1CCn2c(nc(-c3ccc(F)cc3)c2-c2ccc3nc(NC(=O)c4ccnc(F)c4)cn3n2)C1)C(F)(F)F` [Compound 465, 2-Fluoro-N-(6-(2-(4-fluorophenyl)-7-(3,3,3-trifluoro-2,2-dimethylpropanoyl)-5,6,7,8-tetrahydroimidazo[1,2-a]pyrazin-3-yl)imidazo[1,2-b]pyridazin-2-yl)isonicotinamide], the IC50 in assay [1] was found to be 5 nM; in assay [2] it was 0.6 nM.

As to `Cc1nc(-c2ccc(F)cc2)c(-c2ccc3nc(NC(=O)c4ccnn4C)cn3n2)n1C` [Compound 352, N-(6-(4-(4-fluorophenyl)-1,2-dimethyl-1H-imidazol-5-yl)imidazo[1,2-b]pyridazin-2-yl)-1-methyl-1H-pyrazole-5-carboxamide], the IC50 stood at 3.24 nM in assay [1] and 0.593 nM in assay [2].

For `O=C(Nc1cn2nc(-c3c(-c4ccc(F)cc4)ncn3C3CCN(C(=O)c4ccon4)CC3)ccc2n1)c1cncs1` [Compound 116, N-(6-(4-(4-fluorophenyl)-1-(1-(isoxazole-3-carbonyl)piperidin-4-yl)-1H-imidazol-5-yl)imidazo[1,2-b]pyridazin-2-yl)thiazole-5-carboxamide], the IC50 in assay [1] was 0.372 nM; in assay [2] it was 0.173 nM.

On to `CC(C)(C)NC(=O)N1CCn2c(nc(-c3ccc(F)cc3)c2-c2ccc3nc(NC(=O)c4ccnc(F)c4)cn3n2)C1` [Compound 481, N-(tert-Butyl)-3-(2-(2-fluoroisonicotinamido)imidazo[1,2-b]pyridazin-6-yl)-2-(4-fluorophenyl)-5,6-dihydroimidazo[1,2-a]pyrazine-7(8H)-carboxamide], for which the IC50 in assay [1] stood at 5.4 nM; in assay [2] it was 0.6 nM.

For `O=C(Nc1cn2nc(-c3c(-c4ccccc4)ncn3CC(F)F)ccc2n1)c1ccnc(F)c1` [Compound 243, N-(6-(1-(2,2-difluoroethyl)-4-phenyl-1H-imidazol-5-yl)imidazo[1,2-b]pyridazin-2-yl)-2-fluoroisonicotinamide], the IC50 in assay [1] was 5.96 nM; in assay [2] it was 0.652 nM.

Consider `Cc1nc(-c2cccnc2)sc1C(=O)Nc1cn2nc(-c3c(-c4ccc(F)cc4)ncn3C3CCN(C(=O)CC(F)(F)F)CC3)ccc2n1` [Compound 102, N-(6-(4-(4-fluorophenyl)-1-(1-(3,3,3-trifluoropropanoyl)piperidin-4-yl)-1H-imidazol-5-yl)imidazo [1,2-b]pyridazin-2-yl)-4-methyl-2-(pyridin-3-yl)thiazole-5-carboxamide], for which the IC50 in assay [1] came out at 0.484 nM; in assay [2], 0.243 nM.

In the case of `O=C(Nc1cn2nc(-c3c(-c4ccc(F)cc4)ncn3CC(=O)N3CCOCC3)ccc2n1)c1ccnc(F)c1` [Compound 266, 2-fluoro-N-(6-(4-(4-fluorophenyl)-1-(2-(4-morpholinyl)-2-oxoethyl)-1H-imidazol-5-yl)imidazo[1,2-b]pyridazin-2-yl)isonicotinamide], the IC50 in assay [1] amounted to 14.1 nM; in assay [2], 0.416 nM.

`O=C(Nc1cn2nc(-c3c(-c4ccc(F)cc4)ncn3C3CCN(C(=O)c4cnon4)CC3)ccc2n1)c1ccnc(F)c1` [Compound 14, N-(6-(1-(1-(1,2,5-oxadiazole-3-carbonyl)piperidin-4-yl)-4-(4-fluorophenyl)-1H-imidazol-5-yl)imidazo[1,2-b]pyridazin-2-yl)-2-fuoroisonicotinamide]: the IC50 was determined as 3.91 nM in assay [1] and 0.624 nM in assay [2].

Turning to `Cc1nc(-c2ccc(F)cc2)c(-c2ccc3nc(NC(=O)c4ccccc4F)cn3n2)n1C` [Compound 399, 2-fluoro-N-(6-(4-(4-fluoro-phenyl)-1,2-dimethyl-1H-imidazol-5-yl)imidazo[1,2-b]pyridazin-2-yl)benzamide], the figures for the IC50 in assay [1] and in assay [2] were 5.29 nM and 2.13 nM, respectively.

In the case of `O=C(Nc1cn2nc(-c3c(-c4ccc(F)cc4)ncn3CCc3cn[nH]c3)ccc2n1)c1ccnc(F)c1` [Compound 265], the results for the IC50 in assay [1] and in assay [2] were 0.719 nM and 0.147 nM, respectively.

Turning to `Cc1c(C(=O)Nc2cn3nc(-c4c(-c5ccc(F)cc5)nc(C)n4C)ccc3n2)cnn1C` [Compound 381, N-(6-(4-(4-fluorophenyl)-1,2-dimethyl-1H-imidazol-5-yl)imidazo[1,2-b]pyridazin-2-yl)-1,5-dimethyl-1H-pyrazole-4-carboxamide], the results for the IC50 in assay [1] and in assay [2] were 3.74 nM and 0.754 nM, respectively.

As to `Cc1nc(-c2ccc(F)cc2)c(-c2ccc3nc(NC(=O)c4cccc5cnccc45)cn3n2)n1C` [Compound 330, N-(6-(4-(4-fluorophenyl)-1,2-dimethyl-1H-imidazol-5-yl)imidazo[1,2-b]pyridazin-2-yl)-5-isoquinoline-carboxamide], the IC50 was found to be 3.34 nM in assay [1] and 0.373 nM in assay [2].

`Cc1nc(-c2ccc(F)c(F)c2)c(-c2ccc3nc(NC(=O)c4ccnc(F)c4)cn3n2)n1CCF` [Compound 290, N-(6-(4-(3,4-difluorophenyl)-1-(2-fluoroethyl)-2-methyl-1H-imidazol-5-yl)imidazo[1,2-b]pyridazin-2-yl)-2-fluoroisonicotinamide]: the IC50 in assay [1] stood at 1.89 nM; in assay [2] it was 0.412 nM.

Regarding `Cc1nc(-c2ccc(F)cc2)c(-c2ccc3nc(NC(=O)c4ccc5cccnc5c4)cn3n2)n1C` [Compound 337, N-(6-(4-(4-fluorophenyl)-1,2-dimethyl-1H-imidazol-5-yl)imidazo[1,2-b]pyridazin-2-yl)-7-quinolinecarboxamide], the IC50 in assay [1] is 2.58 nM; in assay [2], 0.271 nM.
